Measurements taken from US20170205398A1, “DRUG SCREENING AND POTENCY ASSAYS” (REGENMED (CAYMAN) LTD., priority 2011, published 2017).

Tested on: γ-glutamyl transpeptidase (GGT)
Experiment: Amphotericin B knockdown of SRC/NKA ex vivo GGT (western blot band density, semilogarithmic dose response)
Assay type: cell-based, human
Source text: Morphological, genotypic, phenotypic and functional changes to 2D cultured SRC were monitored to 72hrs following exposure to escalating doses of the well known nephrotoxin, Amphotericin B (Amp B). The TC50 was estimated by Amp B knockdown of SRC/NKA ex vivo GGT activity.
GGT inhibition detected by western blot is shown in below in Table 16.1.
Results from semilogarithmic dose response analysis are shown below in Table 16.2.

Compound: C[C@@H]1[C@H](O)[C@@H](C)/C=C/C=C/C=C/C=C/C=C/C=C/C=C/[C@H](O[C@@H]2O[C@H](C)[C@@H](O)[C@H](N)[C@@H]2O)C[C@@H]2O[C@](O)(C[C@@H](O)C[C@@H](O)[C@H](O)CC[C@@H](O)C[C@@H](O)CC(=O)O[C@H]1C)C[C@H](O)[C@H]2C(=O)O [Amphotericin B]
- IC50 (2D cultured SRC, exposure to 72 hrs, sigmoidal fit Log(inhibitor) vs response, read-out: IC50 of inhibitory effect on SRC-mediated GGT): 32.3 µM
- LOGIC50 (Log(inhibitor) vs response fit, 2D cultured SRC): 1.510
- GGT western blot band density (response) ([c] 0.01): 18764
- inv response (inverse of band density) ([c] 0.01): 5.329E−05
- GGT western blot band density (response) ([c] 0.1): 18959
- inv response (inverse of band density) ([c] 0.1): 5.275E−05
- GGT western blot band density (response) ([c] 1): 17112
- inv response (inverse of band density) ([c] 1): 5.844E−05
- GGT western blot band density (response) ([c] 10): 16611
- inv response (inverse of band density) ([c] 10): 6.02E−05
- GGT western blot band density (response) ([c] 100): 8227
- inv response (inverse of band density) ([c] 100): 0.0001216
- GGT western blot band density (response) ([c] 1000): 8000
- inv response (inverse of band density) ([c] 1000): 0.000125
- GGT western blot band density (response) ([c] 10000): 7800
- inv response (inverse of band density) ([c] 10000): 0.0001282
